Laboratory results from PMC4735555, “Crystal structure of the N-myristoylated lipopeptide-bound MHC class I complex” (Nature Communications, 2016).

Columns and labels:
[1] = tested on: Mamu-B*098; assay: Biolayer interferometry binding to β2m-linked Mamu-B*098; parameters: species or system rhesus macaque; settings: Octet RED96; biotinylated β2m-linked Mamu-B*098; lipopeptide 10 μM, 45 min, then 30 min without; 20 mM Tris-HCl pH 7.5, 150 mM NaCl, 2% DMSO; 30 °C; representative of three independent experiments
Excerpt: (§1) Single-chain MHC proteins in which β2m was linked via a Gly-Ser linker (GGGGSGGSGSGGGSS) to the ectodomain of either Mamu-B*098 or Mamu-A*02, followed by a biotinylation sequence peptide (LHHILDAQKMVWNHR), were also expressed in E. coli and were purified in a similar manner to the trimer complex of Mamu-B*098, β2m and C14nef5. The β2m-linked Mamu-B*098 protein was refolded without C14nef5, whereas the β2m-linked Mamu-A*02 protein was refolded in the presence of the YY9 peptide (YTSGPGIRY). These recombinant proteins (3 mg) were biotinylated by being incubated for 12 h at 20 °C with 2 μg of BirA enzyme (Sigma-Aldrich, St Louis, MO) in a biotinylation buffer containing 100 mM Tris-HCl pH 8.0, 5 mM MgCl2, 4.5 mM ATP and 4 mM D-biotin, and were purified by size-exclusion chromatography.
(§2) The binding of ligands to MHC class I molecules was analysed using the Octet RED96 system equipped with a streptavidin-conjugated biosensor (Pall ForteBio, Menlo Park, CA) according to the manufacturer's instructions. Biotinylated β2m-linked Mamu-B*098 and Mamu-A*02 proteins were immobilized on the sensor tip surface with a signal magnitude of ∼5.0 nm. […] After reference subtraction, binding signals were analysed using the BIAevaluation 3.1 software. […]

[2] = tested on: 2N5.1 (plate-coated Mamu-B*098); assay: T-cell assay with plate-coated Mamu-B*098, IFN-γ release by 2N5.1; assay type: cell-based, rhesus macaque; settings: 10 μg MHC protein, 1 μg lipopeptide loaded overnight 37 °C; 5 × 10^4 T cells per well, 24 h; IFN-γ ELISA
Excerpt: as §1
Streptavidin-coated 96-well plates (Thermo Scientific, Hudson, NH) were overlaid with 10 μg of the biotinylated β2m-linked Mamu-B*098 and Mamu-A*02 proteins, and lipopeptide Ags (1 μg) were loaded by an overnight incubation at 37 °C. The wells were then washed extensively and T cells (5 × 10^4 per well) were added. After a 24-h incubation at 37 °C, aliquots of the culture supernatants were collected and the amount of IFN-γ released into the medium was measured by a human/monkey IFN-γ enzyme-linked immunosorbent assay kit (Mabtech, Nacka Strand, Sweden).

[3] = tested on: 2N5.1 TCR; assay: SPR binding of soluble 2N5.1 TCR to peptide-loaded Mamu-A*02; parameters: species or system rhesus macaque; settings: in words; Biacore 3000, 30 °C; soluble 2N5.1 TCR αβ dimer; YY9 peptide-loaded Mamu-A*02 immobilized; pH 7.5
Excerpt: as §1
TCR dimers were generated by the disulfide-linked TCR method. […]
as §2, with “instructions.” for “instructions. Biotinylated β2m-linked Mamu-B*098 and Mamu-A*02 proteins were immobilized on the sensor tip surface with a signal magnitude of ∼5.0 nm.”

Substance	physical interaction with immobilized Mamu-B*098 (biolayer interferometry) [1]	IFN-γ response of 2N5.1 to plate-coated Mamu-B*098 with lipopeptide Ag [2]	interaction of 2N5.1 TCR with peptide-loaded Mamu-A*02 (SPR) [3]
C14-GGAAS	bound to B*098	failed to stimulate 2N5.1 even in the presence of Mamu-B*098	–
YTSGPGIRY [YY9, YY9 peptide (…)]	–	–	no interaction was detected
